Experimental data published in PubChem BioAssay (NCI).
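1) Cells in 96-well plates. 2) Compound, 48 h, 5 concentrations. 3) Linear interpolation between surrounding doses. 4) Unreached endpoint = highest concentration. Here, GI50 denotes the concentration required for 50% inhibition of growth. TGI: total growth inhibition.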

What was measured:
Experiment in all cases: NCI-60 cell line screen, 48 h
UACC-62 melanoma = test system: UACC-62 melanoma
NCI-H522 lung = test system: NCI-H522 lung
MALME-3M melanoma = test system: MALME-3M melanoma
SF-295 CNS = test system: SF-295 CNS
KM12 colon = test system: KM12 colon
A549 NSCLC = test system: A549 NSCLC
UACC-257 melanoma = test system: UACC-257 melanoma
NCI-H23 lung = test system: NCI-H23 lung
SK-MEL-2 melanoma = test system: SK-MEL-2 melanoma
SF-268 CNS = test system: SF-268 CNS

| SMILES | TGI (UACC-62 melanoma) [µM] | TGI (NCI-H522 lung) [µM] | TGI (MALME-3M melanoma) [µM] | TGI (SF-295 CNS) [µM] | TGI (KM12 colon) [µM] | TGI (A549 NSCLC) [µM] | TGI (UACC-257 melanoma) [µM] | TGI (NCI-H23 lung) [µM] | TGI (SK-MEL-2 melanoma) [µM] | TGI (SF-268 CNS) [µM] | GI50 (UACC-62 melanoma) [µM] | GI50 (NCI-H522 lung) [nM] | GI50 (MALME-3M melanoma) [nM] | GI50 (SF-295 CNS) [nM] | GI50 (KM12 colon) [nM] | GI50 (A549 NSCLC) [nM] | GI50 (UACC-257 melanoma) [µM] | GI50 (NCI-H23 lung) [nM] | GI50 (SK-MEL-2 melanoma) [nM] | GI50 (SF-268 CNS) [nM] |
| --- | --- | --- | --- | --- | --- | --- | --- | --- | --- | --- | --- | --- | --- | --- | --- | --- | --- | --- | --- | --- |
| O=C(C(O)c1cn(Cc2ccccc2)c2ccccc12)N1CCCCC1 (centres undefined) | > 100 | > 100 | > 100 | > 100 | > 100 | > 100 | > 100 | > 10 | > 100 | > 100 |  |  |  |  |  |  |  |  |  |  |
| CN1CCN(Cc2ccc(NC(=O)c3cncc(C#Cc4cnc(N)c5ccc(F)cc45)c3)cc2C(F)(F)F)CC1 | 8.48 | 6.53 | 3.93 | 7.35 | 4.63 | 6.46 | 8.63 | 7.86 | 2.39 | 8.92 | 4 | 1860 | 1080 | 2900 | 28.2 | 2040 | 4.08 | 2400 | 808 | 1790 |
| C=CCCCCCCCCCCCC1CCC(CC)N1 (centres undefined) | 29.4 | 13.5 | 31.4 | 27.8 | 13.1 | 24.8 | 28 | 28.6 | 29.5 | 46.6 |  |  |  |  |  |  |  |  |  |  |
| CCN(CC)c1ccc(N=Nc2ccc(-c3nc4cccnc4o3)cc2)cc1 | > 100 | > 100 | > 100 | > 100 | > 100 | > 100 | > 100 | > 100 | > 100 | > 100 |  |  |  |  |  |  |  |  |  |  |
| O=[N+]([O-])c1ccc2[nH]cc(-c3c4ccsc4cc4[nH]c5ccc([N+](=O)[O-])cc5c34)c2c1 | 8.01 | 3.42 | 9.44 | 3.09 | 4.21 | 5.4 | 10.5 | 5.62 | 4.18 | 18.5 | 0.641 | 423 | 898 | 629 | 770 | 1120 | 2.92 | 1210 | 861 | 1390 |
| COc1ccc(-c2c(C3=NCCN3)nnn2-c2ccccc2)cc1 | > 100 | > 100 | > 100 | > 100 | > 100 | > 100 | > 100 | > 100 | > 100 | > 100 |  |  |  |  |  |  |  |  |  |  |
| CC(=O)Oc1cc(C)ccc1[C@]1(C)CC[C@H](C)/C1=C\Br | 19.7 | 22.7 | 10.2 | 13.2 | 12 | 17.3 | 20.8 | 20.3 | 24.7 | 17.9 | 5.98 | 5280 | 2950 | 3960 | 2920 | 4980 | 8.28 | 6540 | 7210 | 4760 |
| CCN(CC)CCC1CC/C(=C\c2ccc(OC)cc2)C1=O (centres undefined) | 34.7 | > 100 | > 100 | > 100 | > 100 | > 100 | 77.6 |  | > 100 | > 100 |  |  |  |  |  |  |  |  |  |  |
